# Measurements as given in patent US20060276393A1, “Novel compositions for preventing and treating neurodegenerative and blood coagulation disorders” (Sirtris Pharmaceuticals, Inc., priority 2005, published 2006).
# How the values were obtained:
# recombinant GST-Sir2 = recombinant GST-Sir2 (Saccharomyces cerevisiae, UniProt P06700); experiment: Sir2 deacetylation rate assay; type: biochemical, S. cerevisiae; conditions: in vitro dose-response
# Experimental: Average lifespan for wild type, 22.9 generations, quercetin, 23.4; piceatannol.
# His6-tagged recombinant SIRT1 and GST-tagged recombinant Sir2 were prepared as previously described^26. From 0.1 to 1 μg of SIRT1 and 1.5 μg of Sir2 were used per deacetylation assay (in 50 μl total reaction) as previously described^26. SIRT1 assays and certain of those for Sir2 employed the p53-382 acetylated substrate (° Fluor de Lys-SIRT1′, BIOMOL) rather than FdL.
# Themed compound libraries (BIOMOL) were used for primary and secondary screening. Most polyphenol compounds were dissolved at 10 mM in dimethylsulfoxide (DMSO) on the day of the assay. For water soluble compounds and negative controls, 1% v/v DMSO was added to the assay. In vitro fluorescence assay results were read in white ½-volume 96-well microplates (Coming Costar 3693) with a CytoFluor™. II fluorescence plate reader (PerSeptive Biosystems, Ex. 360 nm, Em. 460 nm, gain=85). HeLa cells were grown and the cellular deacetylation assays were performed and read, as above, but in full-volume 96-well microplates (Coming Costar 3595). […] Calculation of net fluorescence increases included subtraction of a blank value, which in the case of Sir2 was obtained by omitting the enzyme from the reaction and in the case of SIRT1 by adding an inhibitor (200 μM suramin or 1 mM nicotinamide) to the reaction prior to the acetylated substrate. […]
# C. elegans = C. elegans lifespan; type: in vivo
# Experimental: Thus, the presence of resveratrol in the growth media of C. elegans extends their lifespan.
# Bristol N2 (Caenorhabditis Genetics Center) was used as the wild-type strain. The sir-2.1 mutant strain was generated by backcrossing VC199 (sir-2.1(ok434)) to N2 four times. Cultures were grown on standard NGM media and maintained on E. coli strain OP50. For the lifespan assays, synchronized animals were transferred to treatment plates as young adults (2 d after hatching, day 0 of assay), and were transferred to fresh treatment plates every 2 days for the first 6 to 8 days of the assay. […] For some lifespan trials, heat-killed OP50 were used as a food source. OP50 cultures were heated to 65° C. for 30 minutes, then pelleted and resuspended in 1/10 volume in S Basal supplemented with 10 mM MgSO4. In all assays, worms were monitored daily for mortality by gently probing with a platinum pick. Assays were performed at 24° C. To assay worm feeding rates, worms at the indicated stages were placed on treatment plates (no FUdR) for 4-5 hours, then videoed for 1 minute using a Pixelink PL-662 camera. The frame rate was slowed and the pumping rate of the pharynx was counted. To assay fecundity, gravid hermaphrodites (5 per plate, raised from synchronized L1s on normal or treatment plates) were allowed to lay eggs on their respective media for 5 hours, and the total number of eggs was counted.
# recombinant SIR-2.1 = target: T1, recombinant SIR-2.1 (Caenorhabditis elegans, UniProt Q21921)
# T1 sequence (Q21921 1-607): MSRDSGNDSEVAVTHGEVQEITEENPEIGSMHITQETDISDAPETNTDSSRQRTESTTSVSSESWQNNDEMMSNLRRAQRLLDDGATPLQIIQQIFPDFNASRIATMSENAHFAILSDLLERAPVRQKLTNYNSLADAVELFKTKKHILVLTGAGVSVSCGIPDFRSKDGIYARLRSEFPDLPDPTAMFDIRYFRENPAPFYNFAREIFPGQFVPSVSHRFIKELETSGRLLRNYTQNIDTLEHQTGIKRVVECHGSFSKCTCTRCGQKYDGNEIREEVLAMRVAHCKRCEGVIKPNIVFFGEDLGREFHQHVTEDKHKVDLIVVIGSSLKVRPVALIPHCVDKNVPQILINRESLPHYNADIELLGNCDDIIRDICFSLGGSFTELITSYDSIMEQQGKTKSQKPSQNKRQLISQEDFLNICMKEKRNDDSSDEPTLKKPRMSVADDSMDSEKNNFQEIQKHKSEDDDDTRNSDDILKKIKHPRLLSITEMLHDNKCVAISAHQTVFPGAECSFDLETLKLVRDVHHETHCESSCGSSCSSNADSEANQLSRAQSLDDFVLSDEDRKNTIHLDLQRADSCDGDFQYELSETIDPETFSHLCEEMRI
# Experimental: STACs were dissolved at 10 mM in dimethylsulfoxide (DMSO) the day of the assay. […] Drosophila S2 cells were grown in Schneider media with fetal calf serum at 23-28° C., seeded at 9×10^4 cells/well, grown overnight and then exposed to 1 μM TSA, 500 μM polyphenols, and 200 μM FdL for 2 hr. Deacetylation of FdL with lysate from whole cells was determined as described^4. Unless otherwise indicated all initial rate measurements were means of three or more replicates obtained with single incubation times, at which point 5% or less of the substrate initially present was deacetylated.
# Chain of recombinant GST-Sir2 (P06700 whole entry): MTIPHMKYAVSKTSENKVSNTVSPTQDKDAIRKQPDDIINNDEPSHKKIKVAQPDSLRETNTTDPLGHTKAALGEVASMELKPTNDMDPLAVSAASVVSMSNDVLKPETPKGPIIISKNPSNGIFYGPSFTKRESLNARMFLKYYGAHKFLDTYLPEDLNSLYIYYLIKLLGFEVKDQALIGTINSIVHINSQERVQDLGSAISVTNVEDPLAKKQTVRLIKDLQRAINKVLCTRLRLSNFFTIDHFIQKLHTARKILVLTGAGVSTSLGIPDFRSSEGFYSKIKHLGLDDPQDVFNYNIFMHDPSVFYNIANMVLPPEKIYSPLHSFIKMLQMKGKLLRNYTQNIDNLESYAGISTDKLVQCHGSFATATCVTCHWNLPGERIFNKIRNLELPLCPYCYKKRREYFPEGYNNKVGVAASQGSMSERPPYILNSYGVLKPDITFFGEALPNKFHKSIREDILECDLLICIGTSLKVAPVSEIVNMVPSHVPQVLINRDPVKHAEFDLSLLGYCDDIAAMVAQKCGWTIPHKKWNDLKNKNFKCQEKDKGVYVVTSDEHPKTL
smiles,measurement,setting,value
"Oc1ccc(/C=C/c2cc(O)cc(O)c2)cc1 [Resveratrol, 3,5,4′-Trihydroxy-trans-stilbene]",concentrations at which inhibition of Sir2 was seen,recombinant GST-Sir2,> 100 µM
same,optimum concentration of activator for Sir2 stimulation,recombinant GST-Sir2,2 to 5 µM
same,worms alive on day 17,"C. elegans; 50 worms strain N2, 100 μM, control 5 alive",17 worms
same,lifespan extension,"C. elegans; sir-2.1 mutants, 100 μM, heat-killed OP50, not statistically significant",5.2%
same,lifespan extension,"C. elegans; sir-2.1 mutants, 100 μM, live OP50, P=0.81",3.3%
same,lifespan extension,"C. elegans; wild-type N2, 100 μM, live OP50",12.6%
same,lifespan extended (maximum),"C. elegans; wild-type worms, 100 μM, heat-killed or live E. coli",up to 15%
same,Km of SIR-2.1 for the co-substrate NAD+,"recombinant SIR-2.1; 100 μM resveratrol, 10 μM Fluor de Lys",lowered the Km of SIR-2.1
same,stimulated deacetylation (maximum),"recombinant SIR-2.1; dose-dependent, Fluor de Lys",up to 2.5 fold
